Results: patent US20250215030A1, “STAT MODULATORS AND USES THEREOF” (Recludix Pharma, Inc., priority 2022, published 2025)

What was measured:
[1] = target: T1, Recombinant STAT3 protein (STAT3(G127-I722)) (Homo sapiens, UniProt P40763); assay: STAT3 Fluorescence Polarization (FP) Assay; assay type: binding; settings: STAT3(G127-I722) 25 nM, probe 5-FAM-GpYLPQTV-NH2 2 nM, 45-minute incubation
T1 construct: STAT3(G127-I722)
Outline: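 STAT3(G127-I722) at 25 nM and 5-FAM-GpYLPQTV-NH2 probe at 2 nM in HEPES pH 7.4 buffer with NaCl, EDTA, Tween 20, DTT; 1% DMSO. FP read after 45 min at room temperature; IC50 by nonlinear regression of mP vs log concentration, binned A ≤100 nM to D >10 μM.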

[2] = target: T2, Recombinant STAT6 protein (STAT6(W123-T658)) (Homo sapiens, UniProt P42226); assay: STAT6 Fluorescence Polarization (FP) Assay; assay type: binding; settings: STAT6(W123-T658) 250 nM, probe 5-FAM-ApYKPFQDLI-NH2 2 nM, 45-minute incubation
T2 construct: STAT6(W123-T658)
T2 sequence (P42226 123-658): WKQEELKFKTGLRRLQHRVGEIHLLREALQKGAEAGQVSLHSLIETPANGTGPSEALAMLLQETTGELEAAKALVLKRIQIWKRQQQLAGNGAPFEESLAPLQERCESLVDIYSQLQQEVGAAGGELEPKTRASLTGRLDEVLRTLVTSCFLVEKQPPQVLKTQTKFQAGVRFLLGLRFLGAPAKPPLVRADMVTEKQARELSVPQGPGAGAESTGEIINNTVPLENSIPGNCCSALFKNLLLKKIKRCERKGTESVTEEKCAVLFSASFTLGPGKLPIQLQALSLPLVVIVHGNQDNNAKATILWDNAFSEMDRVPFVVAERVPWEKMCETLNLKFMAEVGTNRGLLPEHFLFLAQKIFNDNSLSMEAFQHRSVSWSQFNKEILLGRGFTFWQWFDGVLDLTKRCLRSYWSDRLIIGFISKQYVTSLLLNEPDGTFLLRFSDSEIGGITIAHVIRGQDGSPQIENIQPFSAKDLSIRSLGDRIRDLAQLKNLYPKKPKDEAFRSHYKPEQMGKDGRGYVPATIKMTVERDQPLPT
Outline: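 STAT6 (W123-T658) at 250 nM mixed with 2 nM 5-FAM-ApYKPFQDLI-NH2 probe in HEPES pH 7.4 buffer with DTT and Tween 20, 1% DMSO final. Polarization read after 45 min at room temperature; IC50 by nonlinear regression of mP versus log concentration, reported in bins A–D.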

T1 sequence (P40763 127-722, species assumed): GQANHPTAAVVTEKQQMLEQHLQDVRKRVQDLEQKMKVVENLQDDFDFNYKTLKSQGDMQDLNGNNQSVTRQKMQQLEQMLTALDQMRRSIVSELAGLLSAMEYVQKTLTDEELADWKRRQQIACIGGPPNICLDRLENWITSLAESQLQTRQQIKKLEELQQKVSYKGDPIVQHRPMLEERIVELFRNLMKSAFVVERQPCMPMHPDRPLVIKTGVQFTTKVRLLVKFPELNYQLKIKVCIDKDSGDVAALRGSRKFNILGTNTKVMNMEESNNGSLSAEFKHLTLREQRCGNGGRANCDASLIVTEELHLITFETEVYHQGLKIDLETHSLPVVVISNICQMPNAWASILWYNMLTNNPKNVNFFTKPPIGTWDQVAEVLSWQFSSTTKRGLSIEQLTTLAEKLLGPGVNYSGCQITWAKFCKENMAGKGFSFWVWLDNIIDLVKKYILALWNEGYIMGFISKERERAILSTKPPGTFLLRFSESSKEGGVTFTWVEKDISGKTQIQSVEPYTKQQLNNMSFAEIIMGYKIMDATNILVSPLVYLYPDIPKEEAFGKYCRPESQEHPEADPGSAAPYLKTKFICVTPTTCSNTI

Row | Compound | IC50 [1] [nM] | IC50 [2] [nM]
1 | O=C(N[C@H]1C[C@@H]2C[C@@H]2C[C@H]2CC[C@@H](C(=O)N[C@H]3CN(c4cccnc4)C[C@@H]3F)N2C1=O)c1cc2cc(CP(=O)(O)O)ccc2s1 [Example 256, ((2-(((3S,6S,7aS,8aR,9aR)-3-(((3S,4S)-4-fluoro-1-(pyridin-3-yl)pyrrolidin-3-yl)carbamoyl)-5-oxodecahydro-1H-cyclopropa[d]pyrrolo[1,2-a]azocin-6-yl)carbamoyl)benzo[b]thiophen-5-yl)methyl)phosphonic acid] | 100 to 1000 | 3000 to 30000
2 | O=C(N[C@H]1C[C@@H]2C[C@@H]2C[C@H]2CC[C@@H](C(=O)N3CC(c4nn[nH]n4)C3)N2C1=O)c1cc2cc(C(F)(F)P(=O)(O)O)ccc2s1 [Compound 103, ((2-(((3S,6S,7aS,8aR,9aR)-3-(3-(2H-tetrazol-5-yl)azetidine-1-carbonyl)-5-oxodecahydro-1H-cyclopropa[d]pyrrolo[1,2-a]azocin-6-yl)carbamoyl)benzo[b]thiophen-5-yl)difluoromethyl)phosphonic acid] | 100 to 1000 | 300 to 3000
3 | O=C(N[C@H]1C[C@@H]2C[C@@H]2C[C@H]2CC[C@@H](C(=O)N3CC[C@@H](C(=O)N4CCOCC4)C3)N2C1=O)c1cc2cc(C(F)(F)P(=O)(O)O)ccc2s1 (single isomer, unassigned) [Compound 98] | 100 to 1000 | 3000 to 30000
4 | O=C(N[C@H]1C[C@@H]2C[C@@H]2C[C@H]2CC[C@@H](C(=O)N3CC(Cc4ccc(F)cc4F)C3)N2C1=O)c1cc2cc(CP(=O)(O)O)ccc2s1 [Example 377, ((2-(((3S,6S,7aS,8aR,9aR)-3-(3-(2,4-difluorobenzyl)azetidine-1-carbonyl)-5-oxodecahydro-1H-cyclopropa[d]pyrrolo[1,2-a]azocin-6-yl)carbamoyl)benzo[b]thiophen-5-yl)methyl)phosphonic acid] | 100 to 1000 | 3000 to 30000
5 | O=C(N[C@H]1C[C@@H]2C[C@@H]2C[C@H]2CC[C@@H](C(=O)N3CCOc4ncccc43)N2C1=O)c1cc2cc(C(F)P(=O)(O)O)ccc2s1 (stereo partly drawn) [Example 386, ((2-(((3S,6S,7aS,8aR,9aR)-3-(2,3-dihydro-1H-pyrido[2,3-b][1,4]oxazine-1-carbonyl)-5-oxodecahydro-1H-cyclopropa[d]pyrrolo[1,2-a]azocin-6-yl)carbamoyl)benzo[b]thiophen-5-yl)fluoromethyl)phosphonic acid] | 1000 to 10000 | 300 to 3000
6 | CN(C)c1ccncc1C1CN(C(=O)[C@@H]2CC[C@@H]3C[C@H]4C[C@H]4C[C@H](NC(=O)c4cc5cc(C(F)(F)P(=O)(O)O)ccc5s4)C(=O)N32)C1 [Example 419, ((2-(((3S,6S,7aS,8aR,9aR)-3-(3-(4-(dimethylamino)pyridin-3-yl)azetidine-1-carbonyl)-5-oxodecahydro-1H-cyclopropa[d]pyrrolo[1,2-a]azocin-6-yl)carbamoyl)benzo[b]thiophen-5-yl)difluoromethyl)phosphonic acid] | < 100 | 300 to 3000
7 | O=C(N[C@H]1C[C@@H]2C[C@@H]2C[C@H]2CC[C@@H](C(=O)N3CC(c4cccnc4)C3)N2C1=O)c1cc2cc(C(F)(F)P(=O)(O)O)ccc2s1 [Compound 100, (difluoro(2-(((3S,6S,7aS,8aR,9aR)-5-ox0-3-(3-(pyridin-3-yl)azetidine-1-carbonyl)decahydro-1H-cyclopropa[d]pyrrolo[1,2-a]azocin-6-yl)carbamoyl)benzo[b]thiophen-5-yl)methyl)phosphonic acid] | < 100 | 3000 to 30000
8 | (difluoro(2-(((3S,6S,8aR,9aS,9bR)-3-(3-methoxy-3-(1-methyl-1H-imidazol-2-yl)azetidine-1-carbonyl)-8a-methyl-5-oxodecahydro-1H-cyclopropa[c]pyrrolo[1,2-a]azocin-6-yl)carbamoyl)benzo[b]thiophen-5-yl)methyl)phosphonic acid [Example 241] | 100 to 1000 | 3000 to 30000

Results, then the compound that gave them:

Row | IC50 [1] [nM] | IC50 [2] [nM] | Compound
9 | < 100 | 300 to 3000 | CC(=O)N1CC[C@@H](NC(=O)[C@@H]2CC[C@@H]3C[C@H]4C[C@H]4C[C@H](NC(=O)c4cc5cc(C(F)(F)P(=O)(O)O)ccc5s4)C(=O)N32)C1 [Compound 116, ((2-(((3S,6S,7aS,9aR)-3-(((R)-1-acetylpyrrolidin-3-yl)carbamoyl)-5-oxodecahydro-1H-cyclopropa[d]pyrrolo[1,2-a]azocin-6-yl)carbamoyl)benzo[b]thiophen-5-yl)difluoromethyl)phosphonic acid]
10 | < 100 | 3000 to 30000 | CCOc1ccncc1C1CN(C(=O)[C@@H]2CC[C@@H]3C[C@H]4C[C@H]4C[C@H](NC(=O)c4cc5cc([C@@H](F)P(=O)(O)O)ccc5s4)C(=O)N32)C1 [Example 420, ((S)-(2-(((3S,6S,7aS,8aR,9aR)-3-(3-(4-ethoxypyridin-3-yl)azetidine-1-carbonyl)-5-oxodecahydro-1H-cyclopropa[d]pyrrolo[1,2-a]azocin-6-yl)carbamoyl)benzo[b]thiophen-5-yl)fluoromethyl)phosphonic acid]
11 | < 100 | 3000 to 30000 | CS(=O)(=O)CC1CN(C(=O)[C@@H]2CC[C@@H]3C[C@@H]4C[C@@H]4C[C@H](NC(=O)c4cc5cc(C(F)(F)P(=O)(O)O)ccc5s4)C(=O)N32)C1 [Compound 69, (difluoro(2-(((3S,6S,7aR,8aS,9aR)-3-(3-((methylsulfonyl)methyl)azetidine-1-carbonyl)-5-oxodecahydro-1H-cyclopropa[d]pyrrolo[1,2-a]azocin-6-yl)carbamoyl)benzo[b]thiophen-5-yl)methyl)phosphonic acid]
12 | < 100 | 300 to 3000 | O=C(N[C@H]1C[C@@H]2C[C@@H]2C[C@H]2CC[C@@H](C(=O)N3CC(c4cc[nH]n4)C3)N2C1=O)c1cc2cc(C(F)(F)P(=O)(O)O)ccc2s1 [Compound 111, ((2-(((3S,6S,7aS,8aR,9aR)-3-(3-(1H-pyrazol-3-yl)azetidine-1-carbonyl)-5-oxodecahydro-1H-cyclopropa[d]pyrrolo[1,2-a]azocin-6-yl)carbamoyl)benzo[b]thiophen-5-yl)difluoromethyl)phosphonic acid]
13 | < 100 | 3000 to 30000 | COc1ccncc1C1CN(C(=O)[C@@H]2CC[C@@H]3C[C@H]4C[C@H]4C[C@H](NC(=O)c4cc5cc(C(F)P(=O)(O)O)ccc5s4)C(=O)N32)C1 (stereo partly drawn) [Example 272, (fluoro(2-(((3S,6S,7aS,8aR,9aR)-3-(3-(4-methoxypyridin-3-yl)azetidine-1-carbonyl)-5-oxodecahydro-1H-cyclopropa[d]pyrrolo[1,2-a]azocin-6-yl)carbamoyl)benzo[b]thiophen-5-yl)methyl)phosphonic acid]
14 | < 100 | 300 to 3000 | O=C(N[C@H]1C[C@H]2C[C@H]2C[C@H]2CC[C@@H](C(=O)N3CC(c4cnccc4F)C3)N2C1=O)c1cc2cc(C(F)P(=O)(O)O)ccc2s1 (stereo partly drawn) [Example 248, (fluoro(2-(((3S,6S,7aR,8aS,9aR)-3-(3-(4-fluoropyridin-3-yl)azetidine-1-carbonyl)-5-oxodecahydro-1H-cyclopropa[d]pyrrolo[1,2-a]azocin-6-yl)carbamoyl)benzo[b]thiophen-5-yl)methyl)phosphonic acid]
